# From patent publication EP4635500A1, “THERAPEUTIC AGENT FOR BACTERIAL INFECTION” (Sumitomo Pharma Co., Ltd., priority 2022, dated 2024)
# Where “and” joins values, the source holds several entries; their conditions need not be identical. Identical values can stand only once. Like-named read-outs stand apart in the source and are kept apart here.
# Columns and labels:
# P. aeruginosa = test: MIC, broth microdilution, CDC/FDA Antibiotic Resistance Isolate Bank (Example 7, Tables 10, 15); format: cell-based
# A. baumannii = test: MIC, broth microdilution, CDC/FDA Antibiotic Resistance Isolate Bank (Example 7, Tables 9, 13, 14); format: cell-based, Acinetobacter baumannii
substance,measurement,setting,value
colistin,MIC,"P. aeruginosa; P. aeruginosa KUB No. 5787, AR Bank # 441",0.5 µg/mL
same,MIC,"P. aeruginosa; P. aeruginosa KUB No. 5788, AR Bank # 443",1 µg/mL
same,MIC,"P. aeruginosa; P. aeruginosa KUB No. 5789, AR Bank # 444",1 µg/mL
same,MIC,"P. aeruginosa; P. aeruginosa KUB No. 5790, AR Bank # 445",1 µg/mL
same,MIC,"P. aeruginosa; P. aeruginosa KUB No. 5793, AR Bank # 449",1 µg/mL
same,MIC,"P. aeruginosa; P. aeruginosa KUB No. 5798, AR Bank # 455",0.25 µg/mL
same,MIC,"P. aeruginosa; P. aeruginosa KUB No. 5799, AR Bank # 456",1 µg/mL
same,MIC,"P. aeruginosa; P. aeruginosa KUB No. 5800, AR Bank # 457",0.5 µg/mL
same,MIC,"P. aeruginosa; P. aeruginosa KUB No. 5801, AR Bank # 458",0.5 µg/mL
same,MIC,"P. aeruginosa; P. aeruginosa KUB No. 5802, AR Bank # 459",0.5 µg/mL
same,MIC,"P. aeruginosa; P. aeruginosa KUB No. 5804, AR Bank # 862",1 µg/mL
same,MIC,"P. aeruginosa; P. aeruginosa KUB No. 5805, AR Bank # 863",1 µg/mL
same,MIC,"P. aeruginosa; P. aeruginosa KUB No. 5806, AR Bank # 864",1 µg/mL
same,MIC,"P. aeruginosa; P. aeruginosa KUB No. 5813, AR Bank # 508",0.0005 µg/mL
same,MIC,"P. aeruginosa; P. aeruginosa KUB No. 5814, AR Bank # 509",0.001 µg/mL
same,MIC,"P. aeruginosa; P. aeruginosa KUB No. 5815, AR Bank # 510",0.0005 µg/mL
same,MIC,"P. aeruginosa; P. aeruginosa KUB No. 5816, AR Bank # 511",0.0005 µg/mL
same,MIC,"P. aeruginosa; P. aeruginosa KUB No. 5817, AR Bank # 512",0.001 µg/mL
same,MIC,"P. aeruginosa; P. aeruginosa KUB No. 5818, AR Bank # 513",0.001 µg/mL
same,MIC,"P. aeruginosa; P. aeruginosa KUB No. 5819, AR Bank # 514",0.001 µg/mL
same,MIC,"P. aeruginosa; P. aeruginosa KUB No. 5820, AR Bank # 515",0.001 µg/mL
same,MIC,"P. aeruginosa; P. aeruginosa KUB No. 5821, AR Bank # 516",0.001 µg/mL
same,MIC,"P. aeruginosa; P. aeruginosa KUB No. 5823, AR Bank # 518",0.001 µg/mL
same,MIC,"P. aeruginosa; P. aeruginosa KUB No. 5831, AR Bank # 526",0.001 µg/mL
same,MIC,"P. aeruginosa; P. aeruginosa KUB No. 5832, AR Bank # 527",0.0005 µg/mL
same,MIC,"P. aeruginosa; P. aeruginosa KUB No. 5833, AR Bank # 528",0.001 µg/mL
same,MIC,"P. aeruginosa; P. aeruginosa KUB No. 5834, AR Bank # 529",0.001 µg/mL
same,MIC,A. baumannii,0.5 µg/mL and 1 µg/mL
same,MIC50,A. baumannii; 55 isolates of A. baumannii,1 µg/mL
same,MIC80,A. baumannii; 55 isolates of A. baumannii,2 µg/mL
same,MIC90,A. baumannii; 55 isolates of A. baumannii,2 µg/mL
same,MIC,"A. baumannii; A. baumannii KUB No. 5567, AR Bank #70, OXA-58, OXA-100",0.25 µg/mL
same,MIC,"A. baumannii; A. baumannii KUB No. 5575, AR Bank #78, OXA-71",1 µg/mL
same,MIC,"A. baumannii; A. baumannii KUB No. 5580, AR Bank #83, OXA-23, OXA-69, NDM-1",1 µg/mL
same,MIC,"A. baumannii; A. baumannii KUB No. 5585, AR Bank #88, OXA-64, NDM-1",1 µg/mL
same,MIC,"A. baumannii; A. baumannii KUB No. 5598, AR Bank #101, OXA-24, OXA-65",1 µg/mL
same,MIC,"A. baumannii; A. baumannii KUB No. 5599, AR Bank #102, OXA-66",1 µg/mL
same,MIC,"A. baumannii; A. baumannii KUB No. 5706, AR Bank #273, OXA-23, OXA-66",1 µg/mL
same,MIC,"A. baumannii; A. baumannii KUB No. 5707, AR Bank #274, OXA-66, OXA-72",0.5 µg/mL
same,MIC,"A. baumannii; A. baumannii KUB No. 5708, AR Bank #275, OXA-23, OXA-66",1 µg/mL
same,MIC,"A. baumannii; A. baumannii KUB No. 5709, AR Bank #276, no carbapenemase genes (-)",2 µg/mL
same,MIC,"A. baumannii; A. baumannii KUB No. 5710, AR Bank #277, OXA-24, OXA-65",0.5 µg/mL
same,MIC,"A. baumannii; A. baumannii KUB No. 5711, AR Bank #278, OXA-23, OXA-66",1 µg/mL
same,MIC,"A. baumannii; A. baumannii KUB No. 5712, AR Bank #279, OXA-23, OXA-66",1 µg/mL
same,MIC,"A. baumannii; A. baumannii KUB No. 5713, AR Bank #280, OXA-66",1 µg/mL
same,MIC,"A. baumannii; A. baumannii KUB No. 5714, AR Bank #281, OXA-82",1 µg/mL
same,MIC,"A. baumannii; A. baumannii KUB No. 5715, AR Bank #282, OXA-23, OXA-66",1 µg/mL
same,MIC,"A. baumannii; A. baumannii KUB No. 5716, AR Bank #283, OXA-23, OXA-66",1 µg/mL
same,MIC,"A. baumannii; A. baumannii KUB No. 5717, AR Bank #284, OXA-24, OXA-65",1 µg/mL
same,MIC,"A. baumannii; A. baumannii KUB No. 5718, AR Bank #285, OXA-24, OXA-65",0.5 µg/mL
same,MIC,"A. baumannii; KUB No. 5719, AR Bank #286",1 µg/mL
same,MIC,"A. baumannii; KUB No. 5720, AR Bank #287",1 µg/mL
same,MIC,"A. baumannii; KUB No. 5721, AR Bank #288",>64 µg/mL
same,MIC,"A. baumannii; KUB No. 5722, AR Bank #259",2 µg/mL
same,MIC,"A. baumannii; KUB No. 5723, AR Bank #290",1 µg/mL
same,MIC,"A. baumannii; KUB No. 5724, AR Bank #291",1 µg/mL
same,MIC,"A. baumannii; KUB No. 5725, AR Bank #292",1 µg/mL
same,MIC,"A. baumannii; KUB No. 5726, AR Bank #293",1 µg/mL
same,MIC,"A. baumannii; KUB No. 5727, AR Bank #294",1 µg/mL
same,MIC,"A. baumannii; KUB No. 5728, AR Bank #295",1 µg/mL
same,MIC,"A. baumannii; KUB No. 5729, AR Bank #296",2 µg/mL
same,MIC,"A. baumannii; KUB No. 5730, AR Bank #297",2 µg/mL
same,MIC,"A. baumannii; KUB No. 5731, AR Bank #298",0.5 µg/mL
same,MIC,"A. baumannii; KUB No. 5732, AR Bank #299",2 µg/mL
same,MIC,"A. baumannii; KUB No. 5733, AR Bank #300",1 µg/mL
same,MIC,"A. baumannii; KUB No. 5734, AR Bank #301",1 µg/mL
same,MIC,"A. baumannii; KUB No. 5735, AR Bank #302",1 µg/mL
same,MIC,"A. baumannii; KUB No. 5736, AR Bank #303",>64 µg/mL
same,MIC,"A. baumannii; KUB No. 5737, AR Bank #304",4 µg/mL
same,MIC,"A. baumannii; KUB No. 5738, AR Bank #305",2 µg/mL
same,MIC,"A. baumannii; KUB No. 5739, AR Bank #306",1 µg/mL
same,MIC,"A. baumannii; KUB No. 5740, AR Bank #307",2 µg/mL
same,MIC,"A. baumannii; KUB No. 5741, AR Bank #308",1 µg/mL
same,MIC,"A. baumannii; KUB No. 5742, AR Bank #309",2 µg/mL
same,MIC,"A. baumannii; KUB No. 5743, AR Bank #310",1 µg/mL
same,MIC,"A. baumannii; KUB No. 5744, AR Bank #311",1 µg/mL
same,MIC,"A. baumannii; KUB No. 5745, AR Bank #312",1 µg/mL
same,MIC,"A. baumannii; KUB No. 5746, AR Bank #313",2 µg/mL
